System: 648629-189-R-J1-PDC complex spheroids viability
Experiment: Anticancer human tumor 648629-189-R-J1-PDC patient-derived bladder carcinoma cell line growth inhibition [CLK]
Conditions: for IC50: curve of first compound; for viability, T/C: stronger effect = lower value
How it was run: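 Multi-cell-type spheroids combined patient-derived tumor cells with HUVEC endothelial cells and human mesenchymal stem cells. Paired agents were dosed in half-log steps down from about clinical Cmax, or from 10 microM where Cmax was unknown.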

[1] = second compound 0.0316 µM, first compound 0.0316 µM
[2] = second compound 0.0316 µM, first compound 0.1 µM
[3] = second compound 0.0316 µM, first compound 0.316 µM
[4] = second compound 0.0316 µM, first compound 1 µM
[5] = second compound 0.0316 µM, first compound 3.16 µM
[6] = second compound 0.0316 µM, first compound 10 µM
[7] = second compound 0.1 µM, first compound 0.0316 µM
[8] = second compound 0.1 µM, first compound 0.1 µM
[9] = second compound 0.1 µM, first compound 0.316 µM
[10] = second compound 0.1 µM, first compound 1 µM
[11] = second compound 0.1 µM, first compound 3.16 µM
[12] = second compound 0.1 µM, first compound 10 µM
[13] = second compound 0.316 µM, first compound 0.0316 µM
[14] = second compound 0.316 µM, first compound 0.1 µM
[15] = second compound 0.316 µM, first compound 0.316 µM
[16] = second compound 0.316 µM, first compound 1 µM
[17] = second compound 0.316 µM, first compound 3.16 µM
[18] = second compound 0.316 µM, first compound 10 µM
[19] = second compound 1 µM, first compound 0.0316 µM
[20] = second compound 1 µM, first compound 0.1 µM
[21] = second compound 1 µM, first compound 0.316 µM
[22] = second compound 1 µM, first compound 1 µM
[23] = second compound 1 µM, first compound 3.16 µM
[24] = second compound 1 µM, first compound 10 µM
[25] = second compound 3.16 µM, first compound 0.0316 µM
[26] = second compound 3.16 µM, first compound 0.1 µM
[27] = second compound 3.16 µM, first compound 0.316 µM
[28] = second compound 3.16 µM, first compound 1 µM
[29] = second compound 3.16 µM, first compound 3.16 µM
[30] = second compound 3.16 µM, first compound 10 µM
[31] = second compound 10 µM, first compound 0.0316 µM
[32] = second compound 10 µM, first compound 0.1 µM
[33] = second compound 10 µM, first compound 0.316 µM
[34] = second compound 10 µM, first compound 1 µM
[35] = second compound 10 µM, first compound 3.16 µM
[36] = second compound 10 µM, first compound 10 µM
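Wherever viability, T/C is given: drug exposure lasted seven days before viability readout; 100% = DMSO vehicle control wells.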

Nc1ccn(C2OC(CO)C(O)C2(F)F)c(=O)n1 (stereo unspecified) + CN1CCN(c2cc(C(=O)Nc3cc4cc(-c5cnn(C)c5)ccc4cn3)ccn2)CC1 showed an IC50 (second compound 0.0316 µM) of 52.9 nM, an IC50 (second compound 0.1 µM) of 49.8 nM and an IC50 (second compound 0.316 µM) of less than 31.6 nM. For the same compound, the IC50 (second compound 1 µM) was less than 31.6 nM, the IC50 (second compound 3.16 µM) was less than 31.6 nM and the IC50 (second compound 10 µM) was less than 31.6 nM. It also gave a viability, T/C [1] of 65.2%, a viability, T/C [2] of 31.1% and a viability, T/C [3] of 11.9%. The viability, T/C [4] was 5.88%, the viability, T/C [5] was 5.69% and the viability, T/C [6] was 4.49%. The viability, T/C [7] was 67.7%, the viability, T/C [8] was 22.8% and the viability, T/C [9] was 10.1%. For the same compound, the viability, T/C [10] was 5.67%, the viability, T/C [11] was 4.53% and the viability, T/C [12] was 3.3%. For the same compound, the viability, T/C [13] was 32.1%, the viability, T/C [14] was 22.7% and the viability, T/C [15] was 13%. It also gave a viability, T/C [16] of 7.45%, a viability, T/C [17] of 9.18% and a viability, T/C [18] of 5.35%. The viability, T/C [19] was 0.19%, the viability, T/C [20] was 0.38% and the viability, T/C [21] was 1.02%. For the same compound, the viability, T/C [22] was 0.31%, the viability, T/C [23] was 0.14% and the viability, T/C [24] was 1.01%. The viability, T/C [25] was 0.09%, the viability, T/C [26] was 1.1% and the viability, T/C [27] was 0.11%. For the same compound, the viability, T/C [28] was 0.09%, the viability, T/C [29] was 0.1% and the viability, T/C [30] was 0.39%. It also gave a viability, T/C [31] of 0.12%, a viability, T/C [32] of 0.13% and a viability, T/C [33] of 0.17%. It also gave a viability, T/C [34] of 0.17%, a viability, T/C [35] of 0.28% and a viability, T/C [36] of 0.17%.
O=C(c1cc(Cc2n[nH]c(=O)c3ccccc23)ccc1F)N1CCN(C(=O)C2CC2)CC1 + CN1CCN(c2cc(C(=O)Nc3cc4cc(-c5cnn(C)c5)ccc4cn3)ccn2)CC1 was tested, and the IC50 (second compound 0.0316 µM) was greater than 10000 nM, the IC50 (second compound 0.1 µM) was greater than 10000 nM and the IC50 (second compound 0.316 µM) was less than 31.6 nM. For the same compound, the IC50 (second compound 1 µM) was less than 31.6 nM, the IC50 (second compound 3.16 µM) was less than 31.6 nM and the IC50 (second compound 10 µM) was less than 31.6 nM. The viability, T/C [1] was 105%, the viability, T/C [2] was 106% and the viability, T/C [3] was 104%. For the same compound, the viability, T/C [4] was 100%, the viability, T/C [5] was 86.5% and the viability, T/C [6] was 72.1%. The viability, T/C [7] was 115%, the viability, T/C [8] was 111% and the viability, T/C [9] was 110%. The viability, T/C [10] was 98%, the viability, T/C [11] was 84.4% and the viability, T/C [12] was 68.2%. The viability, T/C [13] was 37.2%, the viability, T/C [14] was 39.2% and the viability, T/C [15] was 43.6%. For the same compound, the viability, T/C [16] was 46%, the viability, T/C [17] was 42% and the viability, T/C [18] was 32.6%. For the same compound, the viability, T/C [19] was 0.41%, the viability, T/C [20] was 0.25% and the viability, T/C [21] was 0.62%. The viability, T/C [22] was 0.21%, the viability, T/C [23] was 0.92% and the viability, T/C [24] was 1.08%. The viability, T/C [25] was 0.08%, the viability, T/C [26] was 0.44% and the viability, T/C [27] was 0.12%. It also gave a viability, T/C [28] of 0.15%, a viability, T/C [29] of 0.79% and a viability, T/C [30] of 0.38%. For the same compound, the viability, T/C [31] was 0.08%, the viability, T/C [32] was 0.14% and the viability, T/C [33] was 0.72%. The viability, T/C [34] was 0.15%, the viability, T/C [35] was 0.23% and the viability, T/C [36] was 0.5%.
O=c1[nH]cc(F)c(=O)[nH]1 + CN1CCN(c2cc(C(=O)Nc3cc4cc(-c5cnn(C)c5)ccc4cn3)ccn2)CC1 was tested, and the IC50 (second compound 0.0316 µM) was 1470 nM, the IC50 (second compound 0.1 µM) was 1080 nM and the IC50 (second compound 0.316 µM) was less than 31.6 nM. The IC50 (second compound 1 µM) was less than 31.6 nM, the IC50 (second compound 3.16 µM) was less than 31.6 nM and the IC50 (second compound 10 µM) was less than 31.6 nM. It also gave a viability, T/C [1] of 114%, a viability, T/C [2] of 121% and a viability, T/C [3] of 83%. For the same compound, the viability, T/C [4] was 63.3%, the viability, T/C [5] was 30.7% and the viability, T/C [6] was 21.9%. For the same compound, the viability, T/C [7] was 114%, the viability, T/C [8] was 97.7% and the viability, T/C [9] was 96.3%. It also gave a viability, T/C [10] of 49.1%, a viability, T/C [11] of 33.7% and a viability, T/C [12] of 21.9%. It also gave a viability, T/C [13] of 40.7%, a viability, T/C [14] of 40.6% and a viability, T/C [15] of 34.1%. The viability, T/C [16] was 29.9%, the viability, T/C [17] was 23.9% and the viability, T/C [18] was 20.7%. The viability, T/C [19] was 0.35%, the viability, T/C [20] was 0.26% and the viability, T/C [21] was 0.78%. For the same compound, the viability, T/C [22] was 0.34%, the viability, T/C [23] was 0.27% and the viability, T/C [24] was 1.43%. It also gave a viability, T/C [25] of 0.06%, a viability, T/C [26] of 1.49% and a viability, T/C [27] of 0.1%. It also gave a viability, T/C [28] of 0.07%, a viability, T/C [29] of 0.55% and a viability, T/C [30] of 0.1%. The viability, T/C [31] was 0.06%, the viability, T/C [32] was 0.27% and the viability, T/C [33] was 3.05%. It also gave a viability, T/C [34] of 0.13%, a viability, T/C [35] of 1.38% and a viability, T/C [36] of 1.3%.

Source: PubChem BioAssay AID2060602 (Molecular Pharmacology Branch, DTP, NCI, 2025)
